According to PubChem BioAssay AID330 (DTP/NCI, 2004):
Several values for one entry are separate records, joined by “and”; a condition that tells them apart may be missing. Equal values may be shown once. Inconclusive results and toxic doses are left out.

Tested on: P388 leukemia ip, CD2F1 mice, survival T/C
Assay: NCI In Vivo Anticancer Drug Screen. Data for tumor model P388 Leukemia (intraperitoneal) in CD2F1 (CDF1) mice
Details: endpoint: median survival time, higher = longer survival
Method in brief: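 Mice carrying the transplanted tumor received test compound or vehicle. Survival was recorded in each group, and the value is the treated-group measurement divided by that of the vehicle-treated control group.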

[1] = dose: 60.0 mg/kg/injection, schedule: Q01DX005 (ip), vehicle: saline with Tween-80
[2] = dose: 120.0 mg/kg/injection, schedule: Q01DX005 (ip), vehicle: saline with Tween-80
[3] = dose: 240.0 mg/kg/injection, schedule: Q01DX005 (ip), vehicle: saline with Tween-80
[4] = dose: 50.0 mg/kg/injection, schedule: Q01DX005 (ip), vehicle: saline with Tween-80
[5] = dose: 100.0 mg/kg/injection, schedule: Q01DX005 (ip), vehicle: saline with Tween-80
[6] = dose: 100.0 mg/kg/injection, schedule: Q04DX002 (ip), vehicle: saline with Tween-80
[7] = dose: 12.5 mg/kg/injection, schedule: Q01DX009 (ip), vehicle: saline with Tween-80
[8] = dose: 25.0 mg/kg/injection, schedule: Q01DX009 (ip), vehicle: saline with Tween-80
[9] = dose: 50.0 mg/kg/injection, schedule: Q01DX009 (ip), vehicle: saline with Tween-80
[10] = dose: 100.0 mg/kg/injection, schedule: Q01DX009 (ip), vehicle: saline with Tween-80

With COc1c2ccncc2c(C)c2c1[nH]c1ccccc12 the T/C (dose: 6.25 mg/kg/injection, schedule: Q04DX002 (ip), vehicle: distilled water + Tween-80) was 98 % of control, the T/C (dose: 12.5 mg/kg/injection, schedule: Q04DX002 (ip), vehicle: distilled water + Tween-80) was 94 % of control and the T/C (dose: 25.0 mg/kg/injection, schedule: Q04DX002 (ip), vehicle: distilled water + Tween-80) was 94 % of control. For the same compound, the T/C (dose: 50.0 mg/kg/injection, schedule: Q04DX002 (ip), vehicle: distilled water + Tween-80) was 89 % of control, the T/C (dose: 100.0 mg/kg/injection, schedule: Q04DX002 (ip), vehicle: distilled water + Tween-80) was 89 % of control and the T/C (dose: 200.0 mg/kg/injection, schedule: Q04DX002 (ip), vehicle: distilled water + Tween-80) was 88 % of control.
For O=C1NC2(CN3CCC2CC3)C(=O)N1CN(Cc1ccccc1)c1ccccc1 (stereo not drawn), the T/C [1] was 99 % of control, the T/C [2] was 99 % of control and the T/C [3] was 99 % of control.
In the case of O=C(O)CSC(=O)Nc1ccc(N=Nc2ccccc2)cc1, the T/C [4] is reported as 102 % of control and the T/C [5] is reported as 91 % of control.
For COC(=O)C1CCC2C(C1)OC1(CC(OC(=O)/C=C/c3ccccc3)C(C)CO1)C21CO1 (stereo not drawn), the T/C (dose: 3.0 mg/kg/injection, schedule: Q01DX005 (ip), vehicle: saline + alcohol) was 100 % of control, the T/C (dose: 5.0 mg/kg/injection, schedule: Q01DX009 (ip), vehicle: saline + alcohol) was 95 % of control and the T/C (dose: 6.0 mg/kg/injection, schedule: Q01DX005 (ip), vehicle: saline + alcohol) was 97 % of control. The T/C (dose: 10.0 mg/kg/injection, schedule: Q01DX009 (ip), vehicle: saline + alcohol) was 106 % of control, the T/C (dose: 12.0 mg/kg/injection, schedule: Q01DX005 (ip), vehicle: saline + alcohol) was 97 % of control and the T/C (dose: 20.0 mg/kg/injection, schedule: Q01DX009 (ip), vehicle: saline + alcohol) was 103 % of control. For the same compound, the T/C (dose: 24.0 mg/kg/injection, schedule: Q01DX005 (ip), vehicle: saline + alcohol) was 99 % of control and the T/C (dose: 40.0 mg/kg/injection, schedule: Q01DX009 (ip), vehicle: saline + alcohol) was 103 % of control.
For O=Cc1ccccc1C=O, the T/C [6] was 98 % of control, the T/C (dose: 200.0 mg/kg/injection, schedule: Q04DX002 (ip), vehicle: saline with Tween-80) was 107 % of control and the T/C (dose: 400.0 mg/kg/injection, schedule: Q04DX002 (ip), vehicle: saline with Tween-80) was 102 % of control.
With CCN=C1SCCCS1 the T/C [7] was 103 % of control, the T/C [8] was 118 % of control and the T/C [9] was 113 % of control and 119 % of control. The T/C [10] was 117 % of control.
In the case of O=C1C(C(=Nc2ccc(Br)cc2)c2ccccc2)=C(O)c2ccccc21, the T/C (dose: 25.0 mg/kg/injection, schedule: Q04DX002 (ip), vehicle: saline with Tween-80) is reported as 93 % of control, the T/C (dose: 50.0 mg/kg/injection, schedule: Q04DX002 (ip), vehicle: saline with Tween-80) is reported as 99 % of control and the T/C [6] is reported as 92 % of control.
In the case of O=C1c2ccccc2C(=O)c2cc3c(cc21)OCO3, the T/C (dose: 60.0 mg/kg/injection, schedule: Q01DX005 (ip), vehicle: Klucel (hydroxypropylcellulose) (HPC)) is reported as 88 % of control and the T/C (dose: 120.0 mg/kg/injection, schedule: Q01DX005 (ip), vehicle: Klucel (hydroxypropylcellulose) (HPC)) is reported as 89 % of control.
With COc1ccc(C2CC(=O)N(CCCl)C(=O)C2)cc1 the T/C (dose: 100.0 mg/kg/injection, schedule: Q01DX001 (ip), vehicle: suspension in saline) was 102 % of control, the T/C (dose: 200.0 mg/kg/injection, schedule: Q01DX001 (ip), vehicle: suspension in saline) was 103 % of control and the T/C (dose: 400.0 mg/kg/injection, schedule: Q01DX001 (ip), vehicle: suspension in saline) was 100 % of control.
CN1NC(c2ccccc2)=NN=C1c1ccccc1 was tested, and the T/C [1] was 104 % of control, the T/C [2] was 102 % of control and the T/C [3] was 105 % of control.
In the case of CCCCCCCCCCCCNC(=O)[C@@]1(O)[C@H](O)C2(CC)C=CCN3CCC4(c5cc([C@@]6(C(=O)OC)CC7CN(CCc8c6[nH]c6ccccc86)C[C@](O)(CC)C7)c(OC)cc5N(C)[C@H]41)C32 (stereo partly drawn), the T/C (dose: 18.0 mg/kg/injection, schedule: Q01DX005 (ip), vehicle: other) is reported as 157 % of control, the T/C (dose: 30.0 mg/kg/injection, schedule: Q01DX005 (ip), vehicle: other) is reported as 182 % of control and the T/C (dose: 30.0 mg/kg/injection, schedule: Q01DX005 (ip), vehicle: saline) is reported as 160 % of control. The T/C (dose: 50.0 mg/kg/injection, schedule: Q01DX005 (ip), vehicle: other) was 230 % of control and the T/C (dose: 50.0 mg/kg/injection, schedule: Q01DX005 (ip), vehicle: saline) was 177 % of control.
Cn1c(COc2ccc(/C=N/Nc3ccnc(N/N=C/c4ccc(OCc5c[n+]6ccccc6n5C)cc4)n3)cc2)c[n+]2ccccc12 was tested, and the T/C (dose: 12.5 mg/kg/injection, schedule: Q01DX005 (ip), vehicle: saline with Tween-80) was 105 % of control, the T/C (dose: 25.0 mg/kg/injection, schedule: Q01DX005 (ip), vehicle: saline with Tween-80) was 106 % of control and the T/C [4] was 104 % of control and 107 % of control. The T/C [5] was 99 % of control and the T/C (dose: 200.0 mg/kg/injection, schedule: Q01DX005 (ip), vehicle: saline with Tween-80) was 97 % of control.
For Cn1nc(-c2ccccc2)c([N+](=O)[O-])c1NCc1ccccc1, the T/C (dose: 50.0 mg/kg/injection, schedule: Q01DX005 (ip), vehicle: Klucel (hydroxypropylcellulose) (HPC)) was 97 % of control, the T/C (dose: 100.0 mg/kg/injection, schedule: Q01DX005 (ip), vehicle: Klucel (hydroxypropylcellulose) (HPC)) was 100 % of control and the T/C (dose: 200.0 mg/kg/injection, schedule: Q01DX005 (ip), vehicle: Klucel (hydroxypropylcellulose) (HPC)) was 97 % of control.
With CNC(=O)O/N=C/C(C)(C)SC the T/C (dose: 0.11 mg/kg/injection, schedule: Q01DX005 (ip), vehicle: Klucel (hydroxypropylcellulose) (HPC)) was 101 % of control, the T/C (dose: 0.23 mg/kg/injection, schedule: Q01DX005 (ip), vehicle: Klucel (hydroxypropylcellulose) (HPC)) was 101 % of control and the T/C (dose: 0.46 mg/kg/injection, schedule: Q01DX005 (ip), vehicle: Klucel (hydroxypropylcellulose) (HPC)) was 101 % of control.
CC1=Nc2ccccc2NC(C)(C)C1 was tested, and the T/C (dose: 50.0 mg/kg/injection, schedule: Q01DX009 (ip), vehicle: saline) was 103 % of control, the T/C (dose: 100.0 mg/kg/injection, schedule: Q01DX009 (ip), vehicle: saline) was 100 % of control and the T/C (dose: 200.0 mg/kg/injection, schedule: Q01DX009 (ip), vehicle: saline) was 100 % of control.
O=C(O)C1CSC(c2coc3ccccc3c2=O)N1 (stereo not drawn) was tested, and the T/C (dose: 50.0 mg/kg/injection, schedule: Q01DX009 (ip), vehicle: suspension in saline) was 108 % of control, the T/C (dose: 100.0 mg/kg/injection, schedule: Q01DX009 (ip), vehicle: suspension in saline) was 117 % of control and the T/C (dose: 200.0 mg/kg/injection, schedule: Q01DX009 (ip), vehicle: suspension in saline) was 108 % of control.
For C1CCN2CC3CC(CN4CCCC[C@@H]34)[C@@H]2C1, the T/C (dose: 25.0 mg/kg/injection, schedule: Q01DX005 (ip), vehicle: Klucel (hydroxypropylcellulose) (HPC)) was 100 % of control.
In the case of COC(=O)/C=C/N(Cc1ccccc1)Cc1ccccc1, the T/C [10] is reported as 100 % of control, the T/C (dose: 100.0 mg/kg/injection, schedule: Q04DX003 (ip), vehicle: saline with Tween-80) is reported as 95 % of control and the T/C (dose: 200.0 mg/kg/injection, schedule: Q01DX009 (ip), vehicle: saline with Tween-80) is reported as 100 % of control. For the same compound, the T/C (dose: 200.0 mg/kg/injection, schedule: Q04DX003 (ip), vehicle: saline with Tween-80) was 95 % of control, the T/C (dose: 400.0 mg/kg/injection, schedule: Q01DX009 (ip), vehicle: saline with Tween-80) was 100 % of control and the T/C (dose: 400.0 mg/kg/injection, schedule: Q04DX003 (ip), vehicle: saline with Tween-80) was 95 % of control.
With C=C1N(c2nc(Cl)nc(Cl)n2)c2ccccc2C1(C)C the T/C [7] was 113 % of control, the T/C [8] was 104 % of control and the T/C [9] was 124 % of control and 86 % of control.
With COC(=O)/C(=C(\C)C=O)N1C(=O)C(NC(=O)c2ccccc2)C1SSc1nc2ccccc2s1 (stereo not drawn) the T/C (dose: 100.0 mg/kg/injection, schedule: Q01DX001 (ip), vehicle: Klucel (hydroxypropylcellulose) (HPC)) was 108 % of control, the T/C (dose: 200.0 mg/kg/injection, schedule: Q01DX001 (ip), vehicle: Klucel (hydroxypropylcellulose) (HPC)) was 95 % of control and the T/C (dose: 400.0 mg/kg/injection, schedule: Q01DX001 (ip), vehicle: Klucel (hydroxypropylcellulose) (HPC)) was 112 % of control.
In the case of CS(=O)(=O)Nc1ccc(Nc2c3ccccc3nc3cc([N+](=O)[O-])ccc23)cc1, the T/C (dose: 0.09 mg/kg/injection, schedule: Q01DX009 (ip), vehicle: saline with Tween-80) is reported as 121 % of control, the T/C (dose: 0.75 mg/kg/injection, schedule: Q01DX009 (ip), vehicle: saline with Tween-80) is reported as 169 % of control and the T/C (dose: 1.5 mg/kg/injection, schedule: Q01DX009 (ip), vehicle: saline with Tween-80) is reported as 169 % of control. For the same compound, the T/C (dose: 3.0 mg/kg/injection, schedule: Q01DX009 (ip), vehicle: saline with Tween-80) was 177 % of control.
With CN1C(=O)C2CCC(=O)N2C(=S)N(C)C1=S (stereo not drawn) the T/C [1] was 106 % of control and the T/C [2] was 104 % of control.
